Legend:
[1] = test system: HFF1 normal human foreskin fibroblasts; experiment: MTT viability assay; type: cell-based; conditions: 20 µg Cypep-1/ml, 60 min incubation
Method: (§1) Cypep-1 was tested in various concentrations on a total of 17 cell lines, which included 13 human and 1 murine tumour cell line(s), as well as 3 normal human cell lines. Listed in detail: 4 human osteosarcoma (U2OS, SaOS2, HOS and MNNG-HOS), 6 human glioblastoma (A172, GaMg, LN18, U87, U373 and T98G) and 3 human mammary carcinoma cell lines (MCF7, AU565 and MDA-MB-468) as well as an additional murine mammary carcinoma cell line (4T1). Furthermore, 3 normal human cell lines were included: 2 normal human fibroblast cell lines (HFF1 and 142Br) as well as normal human osteoblasts (HOB).
(§2) All normal human cell lines were purchased from Promo Cell (Heidelberg, Germany). While the normal human foreskin fibroblasts (HFF1) were grown in DMEM medium as described above, the additional human skin fibroblast cell line (142Br) and the normal human osteoblasts (HOB) were cultured in purchased cell type specific growth mediums (Promo Cell, Heidelberg, Germany).
(§3) MTT proliferation assays were performed on all cell lines (with the exception of 142Br (human skin fibroblasts)), using monolayers of 15 000 cells in sterile 96 well tissue culture plates (Nunc™, Roskilde, Denmark), respectively. […]

[2] = test system: HOB normal human osteoblasts; experiment: MTT viability assay; type: cell-based; conditions: 20 µg Cypep-1/ml, 60 min incubation
Method: as §1, §2, §3

[3] = test system: 4T1 murine mammary carcinoma cells; experiment: Time-lapse confocal microscopy; type: cell-based; conditions: 20 µg Cypep-1/ml for 3 hours; strongest effect between 40 and 55 min
Method: 30.000 cells of the murine mammary carcinoma cell line 4T1 were seeded into a sterile 24 well dish (Nunc™, Roskilde, Denmark). After 24 hours, the monolayer culture was treated with 20µg Cypep-1/ml, followed by immediate observation of the cells at 37°C and 5% CO2 for a period of 3 hours by means of time-lapse confocal microscopy, using a Zeiss LSM510 Meta System (Carl Zeiss AG, Jena, Germany), equipped with both bright field optics and red fluorescence optics at 595nm. The same experiment was repeated as described above with 4T1 cells that had previously been stably transfected with red fluorescent protein, using a dsRed-expressing lentiviral vector pWPXL-dsRED as previously described by Niclou et al..

[4] = test system: HFF1 normal human foreskin fibroblasts; experiment: LIVE/DEAD Viability/Cytotoxicity assay; type: cell-based; conditions: morphometric evaluation (Calcein), 35 µg Cypep-1/ml, 3 hours
Method: (§4) In order to visualise and quantify the cytotoxic action of Cypep-1 simultaneously, the LIVE/DEAD® Viability/Cytotoxicity Kit was employed according to the manufacturers instructions on monolayers of 30 000 cells in sterile 24 multi well dishes (Nunc™, Roskilde, Denmark), using the selected human osteosarcoma cell lines U2OS and SaOs2 as well as the two human fibroblast cell lines HFF1 (foreskin) and 142Br (skin).
(§5) The monolayer cultures were incubated with Cypep-1 for a period of 3 hours in concentrations ranging from 2.5 µg to 35 µg/ml. The cells were observed using an inverted fluorescence microscope (Nikon Eclipse 2000E, Tokyo, Japan) equipped with FITC (green fluorescence) and TRITC (red fluorescence) filter optics. The fluorescent cells were then photographed at a 10x magnification. The proportions of viable cells (live cells showing green fluorescence due to the presence of Calcein) and dead cells (red fluorescent due to the membrane penetration of Ethidium-Homodimer-1) were quantified using a Lucia G Morphometry System, Version 4.71 (Laboratory Imaging, Prague, Czech Republic).

[5] = test system: 142Br normal human skin fibroblasts; experiment: LIVE/DEAD Viability/Cytotoxicity assay; type: cell-based; conditions: morphometric evaluation (Calcein), 35 µg Cypep-1/ml, 3 hours
Method: as §4, §5

[6] = test system: 4T1 murine mammary carcinoma allografts; experiment: Treatment of subcutaneous 4T1 murine breast cancer allografts; type: in vivo, BALB/c mice
Method: 10^6 4T1 murine metastatic breast cancer cells were grafted subcutaneously under Isofluran anaesthesia into the right upper quadrant of the back of 20 female BALB/c mice (average age 126,25 days; average weight 23.8g). At day 12, when the tumours of both groups had reached a tumour volume of 0.12cm^3 in average, 10 female mice (average weight 23.9 g) received a single intra-tumoural injection of 1200 µg of Cypep-1 dissolved in 300 µl 0.9% NaCl, whereas an equal injection volume of 0.9% NaCl was administered to the 10 animals of the control group (average weight 23.7 g). All injections were performed under isofluoran gas anaesthesia. The animals were then observed for signs of distress as described above. 24 hours after the injections, two animals (one assigned to the control and one of the treatment group) were sacrificed for histological analysis. The harvested tumours were immediately fixed in 4% buffered formaldehyde and embedded in paraffin, cut into 5 µm sections and stained with H&E.
In the remaining 18 experimental animals, the tumour size was measured at regular intervals (every 4th day) until day 24 post tumour grafting. All mice were monitored daily for signs of distress and pain. Those that became sick were euthanized humanely. All animal procedures described were in accordance with protocols approved by The National Animal Research Authority (Oslo, Norway).

[7] = Surface plasmon resonance (SPR) binding to liposomes; conditions: BIAcore 3000, L1 chip, curve fitting
Method: SPR was used to quantify the binding of Cypep-1 to phospholipid model membranes of different compositions at neutral pH (pH 7.4) and a temperature of 25 °C. 100 nm liposomes made of egg yolk […] (EYL; L-α-phosphatidylcholine; 95% purity) were employed to represent amphitropic, neutral membranes, while liposomes composed of both pig brain L-α-phosphatidylserine (PBPS) and EYL (from Avanti Polar Lipids Inc., Alabaster, Alabama, USA), with PBPS:EYL in a 1:1 M: M mixture, represented acidic, negatively charged membranes. […] [79]. The SPR analyses were carried out on a BIAcore 3000 instrument (BIAcore AB, Uppsala, Sweden) as described in Halskau et al., using a L1 sensor chip from BIAcore (BIAcore AB, Uppsala, Sweden).

glioblastoma GaMg = experiment: MTT viability assay; type: cell-based, human; conditions: 20 µg Cypep-1/ml, 60 min incubation, least sensitive cell line
Method: as §1
(§6) MTT proliferation assays were performed on all cell lines (with the exception of 142Br (human skin fibroblasts)), using monolayers of 15 000 cells in sterile 96 well tissue culture plates (Nunc™, Roskilde, Denmark), respectively. All cells were incubated with Cypep-1 dissolved in 0.9% NaCl, at the following concentrations: 0.1, 0.5, 1.0, 5, 10, 15, 20, 25, 30 and 35µg of Cypep-1 per ml and assayed after 15, 30, 45, 60, 75, 90, 180, 270 and 360 min.

mammary carcinoma AU 565 = experiment: MTT viability assay; type: cell-based, human; conditions: 20 µg Cypep-1/ml, 60 min incubation, most sensitive cell line
Method: as §1, §6

Sequence: YGRKKRRQRRRGKTLRVAKAIYKRYIE [Cypep-1]
- survival rate [1]: 66%
- survival rate [2]: 44%
- membrane disruption by time-lapse confocal microscopy [3]: extensive loss of cell content into the medium
- viability [4]: 64%
- viability [5]: 81%
- histological analysis of tumours ([6]; 24 hours after intra-tumoural administration of 1200 µg, H&E): extensive areas of necrosis
- average tumour volume at day 24 ([6]; single intra-tumoural injection of 1200 µg at day 12, control 3.5 cm^3, P<0.0001): 1.1 cm^3
- median survival ([6]; single intra-tumoural injection of 1200 µg at day 12, control 20 days, P<0.0011): 32 days
- signs of discomfort, pain or toxicity after intratumoural injection ([6]; single intra-tumoural injection of 1200 µg in 300µl 0.9% NaCl, BALB/c mice): None of the animals showed any signs of discomfort, pain or toxicity
- peptide concentration of half-maximal binding (S0.5) ([7]; 100 nm EYL liposomes, pH 7.4, 25 °C): 39.1 ± 5.3 µg/mL
- peptide concentration of half-maximal binding (S0.5) ([7]; 100 nm liposomes PBPS:EYL 1:1, pH 7.4, 25 °C): 16.2 ± 4.4 µg/mL
- average surviving fraction (glioblastoma GaMg): 33%
- average surviving fraction (mammary carcinoma AU 565): 7%
